Results on 2 molecules are retold here after ChEMBL document CHEMBL4402608 (J Med Chem, 2020).

Some results are limits rather than exact numbers.

For series [1], the target named is 5-hydroxytryptamine receptor 1A (Homo sapiens, UniProt P08908). The series is described as follows: Displacement of [3H]-Way100635 from recombinant human 5HT1A receptor stably expressed in CHO cell membranes measured after 90 mins by microbeta scintillation counting method. In general terms: In a radioligand displacement assay an active substance lowers the binding of a labelled ligand.

The target in series [2] is 5-hydroxytryptamine receptor 2C (Homo sapiens, UniProt P28335). The experiment in a line: Displacement of [3H]-Mesulergine from recombinant human 5HT2C receptor expressed in HEK cell membranes measured after 90 mins by microbeta scintillation counting method.
Series [3] deals with T1, Alpha-1D adrenergic receptor (Homo sapiens, UniProt P25100).
T1 sequence (P25100 whole entry): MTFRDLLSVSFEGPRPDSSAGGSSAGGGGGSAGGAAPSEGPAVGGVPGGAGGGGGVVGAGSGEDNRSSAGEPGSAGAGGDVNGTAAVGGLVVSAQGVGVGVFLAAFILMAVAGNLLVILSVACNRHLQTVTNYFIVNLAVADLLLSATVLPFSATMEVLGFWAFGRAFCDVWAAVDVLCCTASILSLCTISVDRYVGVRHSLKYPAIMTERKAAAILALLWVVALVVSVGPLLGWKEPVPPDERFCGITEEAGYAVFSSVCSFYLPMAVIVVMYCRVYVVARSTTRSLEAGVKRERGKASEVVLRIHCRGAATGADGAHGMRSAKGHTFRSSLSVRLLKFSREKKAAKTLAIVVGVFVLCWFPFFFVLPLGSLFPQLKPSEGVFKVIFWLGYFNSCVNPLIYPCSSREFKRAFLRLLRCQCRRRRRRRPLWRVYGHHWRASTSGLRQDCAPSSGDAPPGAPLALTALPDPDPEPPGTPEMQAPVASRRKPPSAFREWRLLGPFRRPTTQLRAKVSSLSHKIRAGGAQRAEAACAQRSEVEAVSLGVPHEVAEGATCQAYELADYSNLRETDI
The series is described as follows: Displacement of [3H]-prazosin from recombinant human alpha1D adrenergic receptor measured after 90 mins by microbeta scintillation counting method.

Another series has as its target Histamine H1 receptor (Homo sapiens, UniProt P35367). The series is described as follows: Displacement of [3H]-pyrilamine from human histamine H1 receptor expressed in stable HEK cell membranes after 90 mins by microbeta scintillation counting method.
The target in another series is Histamine H3 receptor (Homo sapiens, UniProt Q9Y5N1). The experiment in a line: Displacement of [3H]-alpha-methylhistamine from recombinant human histamine H3 receptor expressed in HEK Flp-In cell membranes measured after 90 mins by microbeta scintillation counting method.
The target of series [4] is Sodium-dependent serotonin transporter (Homo sapiens, UniProt P31645). The experiment in a line: Displacement of [3H]-citalopram from human SERT receptor expressed in stable HEK cell membranes after 90 mins by microbeta scintillation counting method.
Another series deals with 5HT2B receptor (Homo sapiens, UniProt P41595). The series is described as follows: Displacement of [3H]-LSD from recombinant human 5HT2B receptor stably expressed in HEK cell membranes at 10 uM measured after 90 mins by microbeta scintillation counting method relative to control. The note with it: probe [3H]-LSD.
In series [5] the target is 5HT3 receptor (5-hydroxytryptamine receptor 3A) (Homo sapiens, UniProt P46098). The experiment in a line: Displacement of [3H]GR65630 from recombinant human 5HT3 receptor transiently expressed in HEKT cell membranes at 10 uM measured after 90 mins by microbeta scintillation counting method relative to control. The note with it: probe [3H]GR65630.
For a further series, the target named is 5HT5A receptor (Homo sapiens, UniProt P47898). The experiment in a line: Displacement of [3H]-LSD from recombinant human 5HT5A receptor stably expressed in Flp-In CHO cell membranes at 10 uM measured after 90 mins by microbeta scintillation counting method relative to control. The note with it: probe [3H]-LSD.
The target of the next series is 5HT6 receptor (Homo sapiens, UniProt P50406). The experiment in a line: Displacement of [3H]-LSD from recombinant human 5HT6 receptor stably expressed in HEK cell membranes at 10 uM measured after 90 mins by microbeta scintillation counting method relative to control. The note with it: probe [3H]-LSD.
Series [6] deals with T1, Alpha-1D adrenergic receptor. The series is described as follows: Displacement of [3H]-prazosin from recombinant human alpha1D adrenergic receptor at 10 uM measured after 90 mins by microbeta scintillation counting method relative to control. The note with it: probe [3H]-prazosin.
Series [7] deals with Alpha-2A adrenergic receptor (Homo sapiens, UniProt P08913). The experiment in a line: Displacement of [3H]-rauwolscine from recombinant human alpha2A adrenergic receptor stably expressed in MDCK cell membranes at 10 uM measured after 90 mins by microbeta scintillation counting method relative to control. The note with it: probe [3H]-rauwolscine.
Series [8] concerns the target Beta-1 adrenergic receptor (Homo sapiens, UniProt P08588). The series is described as follows: Displacement of [125I]-pindolol from recombinant human beta1 adrenergic receptor expressed in CHO Flp-In cell membranes at 10 uM measured after 90 mins by microbeta scintillation counting method relative to control. The note with it: probe [125I]-pindolol.
A further series addresses dopamine D5 receptor (Homo sapiens, UniProt P21918). The series is described as follows: Displacement of [3H]-SCH23390 from recombinant human D5 receptor transiently expressed in HEKT cell membranes at 10 uM measured after 90 mins by microbeta scintillation counting method relative to control. The note with it: probe [3H]-SCH23390.
The next series addresses Histamine H2 receptor (Homo sapiens, UniProt P25021). The series is described as follows: Displacement of [125I]-Iodo-aminopotentidine from human histamine H2 receptor expressed in stable HEK cell membranes at 10 uM after 90 mins by microbeta scintillation counting method relative to control. The note with it: probe [125I]-Iodo-aminopotentidine.
Series [9] addresses kappa opioid receptor (KOR) (Homo sapiens, UniProt P41145). The series is described as follows: Displacement of [3H]-U69593 from KOR (unknown origin) at 10 uM measured after 90 mins by microbeta scintillation counting method relative to control. The note with it: probe [3H]-U69593.
A further series addresses muscarinic M1 receptor (Homo sapiens, UniProt P11229). The series is described as follows: Displacement of [3H]-QNB/[3H]-NMS from human muscarinic M1 receptor expressed in stable CHO cell membranes at 10 uM after 90 mins by microbeta scintillation counting method relative to control. The note with it: probe [3H]-QNB/[3H]-NMS.
The target of series [10] is noradrenaline transporter (NET) (Homo sapiens, UniProt P23975). The experiment in a line: Displacement of [3H]-Nisoxetine from human NET receptor expressed in stable HEK cell membranes at 10 uM after 90 mins by microbeta scintillation counting method relative to control. The note with it: stable HEK cell membranes expressing human NET, probe [3H]-Nisoxetine.
Series [11] addresses serotonin transporter (SERT) (Homo sapiens, UniProt P31645). The series is described as follows: Displacement of [3H]-citalopram from human SERT receptor expressed in stable HEK cell membranes at 10 uM after 90 mins by microbeta scintillation counting method relative to control. The note with it: stable HEK cell membranes expressing human SERT, probe [3H]-citalopram.
Another series deals with sigma1 receptor (Homo sapiens, UniProt Q99720). The series is described as follows: Displacement of [3H]-pentazocine from sigma1 receptor (unknown origin) at 10 uM after 90 mins by microbeta scintillation counting method relative to control. The note with it: probe [3H]-pentazocine.
In a further series the target is dopamine D1 receptor (Homo sapiens, UniProt P21728). The experiment in a line: in vitro. The note with it: probe [3H]-SCH23390.
Series [12] has as its target 5-hydroxytryptamine receptor 2C (Homo sapiens) (UniProt P28335). The experiment in a line: Displacement of [3H]-Mesulergine from recombinant human 5HT2C receptor expressed in HEK cell membranes at 10 uM measured after 90 mins by microbeta scintillation counting method relative to control. The note with it: probe [3H]-Mesulergine.

The term Ki denotes the equilibrium dissociation constant of an inhibitor or competing ligand from its target. Broadly, the inhibition is the share of the control response that was lost under treatment. Consider `CCCN(CC[C@]1(O)C[C@H](NC(=O)c2ccc3ccccc3c2)C1)[C@H]1CCc2nc(N)sc2C1`, for which the Ki in series [1] amounted to 708 nM; in series [2] (read-out: Ki) it was 762 nM; in series [3] (read-out: Ki), 1180 nM; at Histamine H1 receptor (read-out: Ki) it was 110 nM; on Histamine H3 receptor (read-out: Ki) it was 893 nM; in [4] (read-out: Ki), 32 nM. Moreover, the inhibition at […], 10 µM at 5HT2B receptor was greater than 50%; in series [5], less than 50%; at 5HT5A receptor, less than 50%; on 5HT6 receptor it was less than 50%; in [6], greater than 50%; in series [7], less than 50%. In addition, the inhibition at […], 10 µM in series [8] is less than 50%; on dopamine D5 receptor, less than 50%; at Histamine H2 receptor it was greater than 50%; in series [9], greater than 50%; on muscarinic M1 receptor it was less than 50%; in series [10], greater than 50%. Further, the inhibition at […], 10 µM in [11] is greater than 50%; on sigma1 receptor, greater than 50%; on dopamine D1 receptor it was less than 50%; in series [12], greater than 50%.

As to `CCCN[C@H]1CCc2nc(N)sc2C1` [PRAMIPEXOLE], the Ki was 6510 nM in series [1]; “Not Active” in series [2]; “Not Active” in series [3]; “Not Active” on Histamine H1 receptor; “Not Active” at Histamine H3 receptor; “Not Active” in [4]. The inhibition at […], 10 µM is less than 50% at 5HT2B receptor; greater than 50% in series [5]; greater than 50% on 5HT5A receptor; greater than 50% at 5HT6 receptor; less than 50% in [6]; greater than 50% in [7]. Further, the inhibition at […], 10 µM in series [8] is less than 50%; at dopamine D5 receptor, greater than 50%; at Histamine H2 receptor, greater than 50%; in [9] it was less than 50%; on muscarinic M1 receptor it was greater than 50%; in series [10], less than 50%. Moreover, the inhibition at […], 10 µM in series [11] is less than 50%; on sigma1 receptor it was greater than 50%; at dopamine D1 receptor it was greater than 50%; in [12], less than 50%.
